pIC50: −log10 of the molar value. Read-outs that look alike come from different tables or passages of the source.
Tests used:
[1] = system: P3HR1; assay: expanded in vitro screen, P3HR1; type: cell-based; details: Homo sapiens, P3HR-1; P3HR1, Burkitts
Procedure: (§1) An expanded in vitro screen was performed of spisulosine 285 against a series of different cell lines.

[2] = system: A-549; assay: in vitro tumor cell line activity, A-549; type: cell-based
[3] = system: HL60; assay: expanded in vitro screen, HL60; type: cell-based; details: Homo sapiens, HL-60; HL60, Leukemia
Procedure: as §1

[4] = system: HT-29; assay: in vitro tumor cell line activity, HT-29; type: cell-based
[5] = system: RAMOS; assay: expanded in vitro screen, RAMOS; type: cell-based; details: Homo sapiens, Burkitts
Procedure: as §1

[6] = system: L1210 murine lymphocytic leukemia cells; assay: L1210 cytotoxicity assay (inhibition of growth); type: cell-based
Procedure: The morphological effect was usually measured 30–35 h after the start of the assay and again about 24 h later, while the cytotoxicity was determined when the number of cells in the controls reached approximately 8000, usually in 3 days after the assay was begun. It should be noted that the pointed cells were live cells and that they were counted as such for the cytotoxicity reading. […] All morphologically-changed cells were counted in the pointed cell percentage.
Cytotoxicity assays against L1210 murine lymphocytic leukemia cells were performed by dissolving the samples in methanol and/or hexane were applied to the dry assay wells and the solvent was allowed to evaporate. Cells (1000) were added in minimum essential medium (MEM, 1 ml) and incubated 37° C. Inhibition of growth was recorded as the estimated percentage of living cells in sample wells versus that in control wells.

[7] = system: Vero cells; assay: effect of LPA on the action of spisulosine 285 in Vero cells (Example D); type: cell-based; details: spisulosine alone, 24 hours
Source text: LPA is known to increase the level of stress fibers in cells by activation of the Rho protein. The effect of LPA on cells treated with spisulosine 285, and untreated cells was examined. […]

[8] = system: Vero cells; assay: microfilament and microtubule staining in Vero cells (Example B); type: cell-based; details: 0.5 mM, 4 hours
Procedure: In order to identify the organization of the microfilament and microtubule organization in cells treated with spisulosine 285, cells were stained with phalloidin to detect actin polymers, and an antitubulin antibody to detect tubulin.
Vero cells were incubated in the presence (panel b, d) or absence (a, c) of 0.5 mM spisulosine 285 for 4 hours. Cells grown in coverslips were fixed with methanol at −20° C. (for tubulin antibody) or with 4% paraformaldehyde in phosphate buffered saline PBS (w/v) for phalloidin incubation. In the second case the cells were washed with 0.2% Triton X100 in PBS. The coverslips were washed with PBS and incubated for 1 hour at room temperature with the tubulin antibody (diluted 1/1000 in PBS) or with phalloidin (1 mg/ml). After washing with PBS the coverslips incubated with the tubulin antibody were overlaid with fluorescein or Texas red-labelled goat antimouse antibodies (diluted 1:50 in PBS). The coverslips were mounted with Mowiol and stored in the dark at 4° C. until observation.

[9] = system: human prostate cancer (PC-3); assay: xenograft model of human prostate cancer; type: in vivo; details: for % T/C / Comments: intraperitoneal
Procedure: Spisulosine 285 was tested in in vivo studies against xenograft models of human prostate cancer (PC-3) and human renal cancer (MRI-H-121). These models use subcutaneously implanted solid human tumors that grow and increase in volume over time. The mean volume of tumor growth in control animals provides the basis for comparison. […] A level of activity that is less than 40% T/C is considered statistically significant. The doses of spisulosine used were given at the maximum tolerated, non lethal dose (MTD), ½ MTD and ¼ MTD. Delivery of the drug was by the intraperitoneal route.

[10] = system: 786-0; assay: expanded in vitro screen, 786-0; type: cell-based; details: Homo sapiens; 786-0, Renal, solid
Procedure: as §1

[11] = system: MEL-28; assay: in vitro tumor cell line activity, MEL-28; type: cell-based
[12] = system: U-937; assay: expanded in vitro screen, U-937; type: cell-based; details: Homo sapiens; U-937, Lymphoma
Procedure: as §1

[13] = system: H9; assay: expanded in vitro screen, H9; type: cell-based; details: Homo sapiens; H9, Lymphoma
Procedure: as §1

[14] = system: Hs 746T; assay: expanded in vitro screen, Hs 746T; type: cell-based; details: Homo sapiens, Hs746T, Stomach, solid
Procedure: as §1

[15] = system: K562; assay: expanded in vitro screen, K562; type: cell-based; details: Homo sapiens; K562, Leukemia
Procedure: as §1

[16] = system: SK-OV-3; assay: expanded in vitro screen, SK-OV-3; type: cell-based; details: Homo sapiens; SK-OV-3, Ovary, solid
Procedure: as §1

[17] = system: SW684; assay: expanded in vitro screen, SW684; type: cell-based; details: Homo sapiens; SW684, Fibrosarcoma
Procedure: as §1

[18] = system: Vero cells; assay: Vero cell morphology (Example A); type: cell-based; details: 0.5 mM, 4 hours
Procedure: Vero cells were grown in Dulbecco's modified Eagle medium supplemented with 10% foetal bovine serum. Spisulosine or LPA were added to these cultures to a concentration of […] and 50–10 mM respectively, from 4 to 24 hours. Cells were counted with the […] haemocytometer procedure using a solution of 0.4% Trypan blue in Hanks buffered Saline (Celis and Celis, “General Procedures for Tissue Culture in Cell Biology, a Laboratory Handbook” Academic Press Inc, Vol 1, pp. 5–17.)
Vero cells were incubated with spisulosine 285 (0.5 mM) for 4 hours. […] Panel c represents a higher magnification of the culture to which spisulosine was added.

For `CCCCCCCCCCCCCCC[C@@H](O)[C@H](C)N` [Spisulosine 285, (2S,3R)-2-Amino-3-octadecanol], the pIC50 [1] was 10.17, the “active against tumor cell line in vitro (concentration)” value (shortened to “active against tumor cell line”) [2] was 0.05 mg/mL and the pIC50 [3] was 11.07. The “active against tumor cell line” value [4] was 0.05 mg/mL, the pIC50 [5] was 10.32 and the cytotoxicity at 0.01 µg/mL ([6]; Mus musculus, L1210, 0.01 μg/ml) was 45%. It also gave a cytotoxicity at […] ([6]; Mus musculus, L1210, 0.025 μg/ml) of 90%, a cytotoxicity at 0.05 µg/mL ([6]; Mus musculus, L1210, 0.05 μg/ml) of 96% and a cytotoxicity at 0.1 µg/mL ([6]; Mus musculus, L1210, 0.1 μg/ml) of 99%. It also gave an inhibition at 0.1 µg/mL ([6]; Mus musculus, L1210, 0.1 μg/ml, read-out: % Inhibitiion) of 63%, a cytotoxicity at […] ([6]; Mus musculus, L1210, 0.25 μg/ml) of 99% and an inhibition at […] ([6]; Mus musculus, L1210, 0.25 μg/ml, read-out: % Inhibitiion) of 96%. The cytotoxicity at 0.5 µg/mL ([6]; Mus musculus, L1210, 0.5 μg/ml) was 100%, the inhibition at 0.5 µg/mL ([6]; Mus musculus, L1210, 0.5 μg/ml, read-out: % Inhibitiion) was 99% and the inhibition at 1 µg/mL ([6]; Mus musculus, L1210, 1 μg/ml, read-out: % Inhibitiion) was 100%. The inhibition at […] ([6]; Mus musculus, L1210, 2.5 μg/ml, read-out: % Inhibitiion) was 100%, the inhibition at 5 µg/mL ([6]; Mus musculus, L1210, 5 μg/ml, read-out: % Inhibitiion) was 100% and the “L1210 cytotoxicity (in words)” value ([6]; listed as 1) was “showed both cytotoxicity and morphological alteration”. For the same compound, the cell morphology [7] was “appearance of rounded cells”, the “actin (phalloidin stain)” value [8] was “dramatic decrease in actin” and the “microtubule network (tubulin antibody)” value [8] was “remains in a polymerised form”. The “effect on tumour size (in words)” value ([9]; at higher doses) was “significantly reducing the tumour size”, the “% T/C” value ([9]; total dose 2.499 mg/kg, day 15) was 223% and the “% T/C” value ([9]; total dose 5.010 mg/kg, day 11) was −1%. For the same compound, the Comments ([9]; total dose 5.010 mg/kg, day 11) was “stasis (complete remission)”, the “% T/C” value ([9]; total dose 9.990 mg/kg, day 11) was −21% and the Comments ([9]; total dose 9.990 mg/kg, day 11) was “stasis (complete remission)”. The pIC50 [10] was 11.56, the “active against tumor cell line” value [11] was 0.05 mg/mL and the pIC50 [12] was 10.71. It also gave a pIC50 [13] of 10.51, a pIC50 [14] of 11.10 and a pIC50 [15] of 10.80. The pIC50 [16] was 10.85, the pIC50 [17] was 8.98 and the cell shape [18] was “altered from polygonal (untreated cells, panel a) to a fusiform shape”.
